Key:
[1] = molecular target: T1, MAGL (Homo sapiens, UniProt Q99685); set-up: method as in earlier work; settings: Table S2, literature compounds; ref (1), (6)-(12) as indicated per compound; cited from earlier work
T1 sequence (Q99685 1-303): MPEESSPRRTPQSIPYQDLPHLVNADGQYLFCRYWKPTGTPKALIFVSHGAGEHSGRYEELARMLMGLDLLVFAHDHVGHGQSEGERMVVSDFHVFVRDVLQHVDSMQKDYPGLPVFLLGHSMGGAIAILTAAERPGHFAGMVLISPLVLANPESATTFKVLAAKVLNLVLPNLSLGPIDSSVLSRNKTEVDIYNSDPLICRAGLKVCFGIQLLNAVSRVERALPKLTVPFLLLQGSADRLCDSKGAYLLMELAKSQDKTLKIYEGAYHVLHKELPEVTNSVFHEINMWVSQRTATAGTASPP

[2] = tested on: MAGL-Nluc fusion protein; experiment: Competition nanoBRET assay in live HEK293 cells with probe 4a as tracer; format: cell-based; settings: tracer 4a (100 nM), read-out: cellular IC50
Experimental: In vitro MAGL Inhibition Assay
Compounds were profiled for MAGL inhibitory activity by determining the enzymatic activity by following the hydrolysis of the natural substrate 2-arachidonoylglycerol (2-AG), resulting in arachidonic acid, which can be followed by mass spectrometry. The 2-AG assay was carried out in 384 well assay plates (PP, Greiner Cat# 784201) in a total volume of 20 µL. Compound dilutions were made in 100% DMSO (VWR Chemicals 23500.297) in a polypropylene plate in 3-fold dilution steps to give a final concentration range in the assay from 12.5 µM to 0.8 pM. […] The activity of the compounds was calculated based on the ratio of intensities [arachidonic acid / d8-arachidonic acid]. […]
A HEK293A stable cell line expressing NanoLuc_MAGL was established at Roche and assigned as HEK293A_NanoLuc_MAGL clone #43. […] The introduction of competing compounds results in a dose -dependent decrease in NanoBRET™ energy transfer, which allows quantification of the intracellular affinity of the target protein for the test compound.
HEK293A_NanoLuc_MAGL clone #43 cells were cultured in DMEM (Gibco 31966) with 10% FBS and 800 ug/ml G418. […] After 2 hours of incubation, Nanoluciferase substrates and extracellular inhibitors were added following the manufacturer's protocol (Promega, #N2520), and the NanoBRET signaling were quantified with the Paradigm (Molecular Devices).

[3] = molecular target: T1, MAGL; experiment: ABPP target occupancy in patient-derived PBMCs; format: cell-based; set-up: native, human patient-derived peripheral blood monocytes (PBMCs); endogenous in cells; host or cells: human PBMCs from buffy coats
Experimental: minutes at RT. Subsequently, 0.5 µL MB064 (40x stock in DMSO) was added to the proteome sample, vortexed briefly, and incubated for 10 minutes at RT, after which 0.5 µL FP-Bodipy-FL (40x stock in DMSO) was added, vortexed briefly and incubated for 10 minutes at RT. The final volume was 20 - 20.5 µL (5 - 7.5% DMSO). The reaction was quenched by the addition of 7.5 µL of 4*Laemmli-buffer (final concentrations: 60 mM Tris (pH 6.8), 2% (w/v) SDS, 10% (v/v) glycerol, 1.25% (v/v) β-mercaptoethanol, 0.01% (v/v) bromophenol blue). 10 µL (14 µg protein) of the quenched reaction mixture was resolved on 10% acrylamide SDS-PAGE (180 V, 75 min). Fluorescence was measured using a Biorad ChemiDoc MP system (fluorescence channels Cy2, Cy3, Cy5). Gels were then stained using coomassie staining and imaged for protein loading control. Labeling of the respective proteins via MB064 and FP-BODIPY was visualized in two separate channels. […]
PBMCs were thawed, washed with 1 x PBS and equal amounts of cells were exposed to DMSO (D2650; Sigma-Aldrich) or MAGL inhibitor PF (PF-06795071) in DMSO for 30 min at room temperature with concentrations ranging from 1 nM to 1000 nM. […] Samples were then separated by SDS-PAGE and bands were detected ChemiDoc Imager (Bio-Rad Laboratories). […] Gels were imaged and protein bands were quantified using Image Lab software (Bio-Rad Laboratories).

[4] = molecular target: T1, MAGL; experiment: Competitive FP binding assay with probe 5 as tracer; settings: 5 (20 nM), hMAGL (50 nM), irreversible inhibitors time-dependent

- IC50 [2]: 1600 nM
- loss of MAGL activity ([3]; 1 nM): 40%
- loss of MAGL activity ([3]; 10 nM): 93%
- Ki [4]: 12.8 ± 3.9 nM
Structure (SMILES): O=C(O[C@H](CO)C(F)(F)F)N1C[C@@H]2C(c3ccn(-c4ccc(F)cc4)n3)[C@@H]2C1 (some centres unmarked) [PF-06795071]
- IC50 [1]: 3 nM

Reference: paper PMC11951083, “Highly Specific Miniaturized Fluorescent Monoacylglycerol Lipase Probes Enable Translational Research” (Journal of the American Chemical Society, 2025)
